PubChem BioAssay AID190 (DTP/NCI, 2004)
“And” between values parts separate entries of the source, which are not always exact repeats. Equal values may be shown once. Toxic doses and inconclusive results are not listed. Rule for the calls: active = survival T/C of 150% or more; inactive = T/C below 125% in these data.

Tested on: AKR/Lw mice, AKR lymphoma ip, median survival T/C
Assay: NCI In Vivo Anticancer Drug Screen. Data for tumor model Lymphoma AKR (Transplanted) (intraperitoneal) in AKR/Lw mice
Settings: endpoint: median survival time, higher = longer survival
Procedure: The antitumor activity of compounds was measured in mice bearing transplantable tumors. Survival or tumor size were measured and the results are expressed as the measurement made in the treated group (T) divided by the measurement made in the vehicle treated control group (C). The tumor model used in this assay is Lymphoma AKR (Transplanted) (intraperitoneal) in AKR/Lw mice

[1] = dose: 150.0 mg/kg/injection, schedule: Q04DX003 (ip), vehicle: saline
[2] = dose: 100.0 mg/kg/injection, schedule: Q01DX001 (ip), vehicle: saline
[3] = dose: 200.0 mg/kg/injection, schedule: Q01DX001 (ip), vehicle: saline
[4] = dose: 400.0 mg/kg/injection, schedule: Q01DX001 (ip), vehicle: saline

Measured: T/C

C[C@]12C=CC(=O)C=C1CC[C@@H]1[C@@H]2C(=O)C[C@@]2(C)[C@H]1CC[C@]2(O)C(=O)CO
inactive: dose: 1.5 mg/kg/injection, schedule: Q ##X008 (sc), vehicle: steriod suspending solution 108 % of control | dose: 1.5 mg/kg/injection, schedule: Q## X008 (sc), vehicle: steriod suspending solution 108 % of control | dose: 3.0 mg/kg/injection, schedule: Q ##X008 (sc), vehicle: steriod suspending solution 109 % of control | dose: 3.0 mg/kg/injection, schedule: Q## X008 (sc), vehicle: steriod suspending solution 109 % of control | dose: 5.0 mg/kg/injection, schedule: Q01DX009 (sc), vehicle: steriod suspending solution 97 % of control | dose: 6.0 mg/kg/injection, schedule: Q ##X008 (sc), vehicle: steriod suspending solution 106 % of control | dose: 6.0 mg/kg/injection, schedule: Q## X008 (sc), vehicle: steriod suspending solution 106 % of control | dose: 10.0 mg/kg/injection, schedule: Q01DX009 (sc), vehicle: steriod suspending solution 100 % of control | dose: 12.0 mg/kg/injection, schedule: Q ##X008 (sc), vehicle: steriod suspending solution 120 % of control | dose: 12.0 mg/kg/injection, schedule: Q## X008 (sc), vehicle: steriod suspending solution 120 % of control | dose: 12.5 mg/kg/injection, schedule: Q01DX001 (sc), vehicle: steriod suspending solution 108 % of control | dose: 12.5 mg/kg/injection, schedule: Q01DX008 (sc), vehicle: steriod suspending solution 94 % of control | dose: 12.5 mg/kg/injection, schedule: Q04DX003 (sc), vehicle: steriod suspending solution 112 % of control | dose: 12.5 mg/kg/injection, schedule: Q## X008 (sc), vehicle: steriod suspending solution 94 % of control | dose: 15.0 mg/kg/injection, schedule: Q04DX002 (sc), vehicle: water 96 % of control | dose: 20.0 mg/kg/injection, schedule: Q01DX009 (sc), vehicle: steriod suspending solution 108 % of control | dose: 25.0 mg/kg/injection, schedule: Q01DX001 (sc), vehicle: steriod suspending solution 108 % of control and 113 % of control | dose: 25.0 mg/kg/injection, schedule: Q01DX004 (sc), vehicle: steriod suspending solution 115 % of control | dose: 25.0 mg/kg/injection, schedule: Q01DX008 (sc), vehicle: steriod suspending solution 119 % of control | dose: 25.0 mg/kg/injection, schedule: Q01DX009 (sc), vehicle: Klucel (hydroxypropylcellulose) (HPC) 96 % of control | dose: 25.0 mg/kg/injection, schedule: Q01DX009 (sc), vehicle: steriod suspending solution 100 % of control | dose: 25.0 mg/kg/injection, schedule: Q04DX002 (sc), vehicle: steriod suspending solution 99 % of control and 100 % of control | dose: 25.0 mg/kg/injection, schedule: Q04DX003 (sc), vehicle: steriod suspending solution 87 % of control | dose: 25.0 mg/kg/injection, schedule: Q## X008 (sc), vehicle: steriod suspending solution 120 % of control | dose: 30.0 mg/kg/injection, schedule: Q04DX002 (sc), vehicle: water 94 % of control and 98 % of control | dose: 35.0 mg/kg/injection, schedule: Q01DX001 (sc), vehicle: steriod suspending solution 96 % of control | dose: 45.0 mg/kg/injection, schedule: Q01DX001 (sc), vehicle: steriod suspending solution 105 % of control | dose: 50.0 mg/kg/injection, schedule: Q01DX004 (sc), vehicle: steriod suspending solution 100 % of control | dose: 50.0 mg/kg/injection, schedule: Q01DX008 (sc), vehicle: steriod suspending solution 101 % of control | dose: 50.0 mg/kg/injection, schedule: Q01DX009 (ip), vehicle: water 115 % of control | dose: 50.0 mg/kg/injection, schedule: Q01DX009 (sc), vehicle: steriod suspending solution 110 % of control | dose: 50.0 mg/kg/injection, schedule: Q04DX002 (sc), vehicle: steriod suspending solution 109 % of control | dose: 50.0 mg/kg/injection, schedule: Q04DX003 (sc), vehicle: steriod suspending solution 100 % of control and 108 % of control and 112 % of control | dose: 50.0 mg/kg/injection, schedule: Q## X008 (sc), vehicle: steriod suspending solution 101 % of control | dose: 60.0 mg/kg/injection, schedule: Q04DX002 (sc), vehicle: water 110 % of control and 111 % of control | dose: 75.0 mg/kg/injection, schedule: Q01DX001 (sc), vehicle: steriod suspending solution 100 % of control | dose: 75.0 mg/kg/injection, schedule: Q04DX002 (sc), vehicle: steriod suspending solution 106 % of control | dose: 90.0 mg/kg/injection, schedule: Q01DX001 (sc), vehicle: steriod suspending solution 114 % of control | dose: 100.0 mg/kg/injection, schedule: Q01DX004 (sc), vehicle: steriod suspending solution 113 % of control | dose: 100.0 mg/kg/injection, schedule: Q01DX008 (sc), vehicle: steriod suspending solution 78 % of control | dose: 100.0 mg/kg/injection, schedule: Q01DX009 (ip), vehicle: water 118 % of control | dose: 100.0 mg/kg/injection, schedule: Q01DX009 (sc), vehicle: steriod suspending solution 102 % of control | dose: 100.0 mg/kg/injection, schedule: Q04DX002 (sc), vehicle: steriod suspending solution 110 % of control | [1] 92 % of control | dose: 150.0 mg/kg/injection, schedule: Q04DX003 (sc), vehicle: steriod suspending solution 105 % of control and 118 % of control and 121 % of control | dose: 180.0 mg/kg/injection, schedule: Q01DX001 (sc), vehicle: steriod suspending solution 120 % of control | dose: 200.0 mg/kg/injection, schedule: Q01DX001 (sc), vehicle: steriod suspending solution 93 % of control and 102 % of control (2×) | dose: 200.0 mg/kg/injection, schedule: Q01DX009 (sc), vehicle: steriod suspending solution 89 % of control | dose: 300.0 mg/kg/injection, schedule: Q04DX003 (ip), vehicle: saline 95 % of control | dose: 300.0 mg/kg/injection, schedule: Q04DX003 (sc), vehicle: steriod suspending solution 114 % of control and 115 % of control (2×) | dose: 400.0 mg/kg/injection, schedule: Q04DX003 (sc), vehicle: steriod suspending solution 95 % of control | dose: 500.0 mg/kg/injection, schedule: Q01DX001 (sc), vehicle: steriod suspending solution 95 % of control | dose: 600.0 mg/kg/injection, schedule: Q01DX001 (sc), vehicle: steriod suspending solution 102 % of control

O=C(COc1ccc(Cl)c(Cl)c1)N(Cc1ccccc1)Cc1cccnc1
inactive: dose: 100.0 mg/kg/injection, schedule: Q01DX001 (ip), vehicle: Klucel (hydroxypropylcellulose) (HPC) 110 % of control | dose: 200.0 mg/kg/injection, schedule: Q01DX001 (ip), vehicle: Klucel (hydroxypropylcellulose) (HPC) 108 % of control | dose: 400.0 mg/kg/injection, schedule: Q01DX001 (ip), vehicle: Klucel (hydroxypropylcellulose) (HPC) 102 % of control

NCCCC(=O)O
inactive: [2] 93 % of control | [3] 95 % of control | [4] 95 % of control

ClC1=C(Cl)C2(Cl)C3(Cl)C(Cl)=C(Cl)C(Cl)(C34OCCO4)C2(Cl)C12OCCO2 (stereo not drawn)
inactive: [2] 96 % of control | [3] 108 % of control | [4] 108 % of control

OCC1OC(n2cnc3c(Cl)ncnc32)C(O)C1O (stereo not drawn)
inactive: dose: 6.2 mg/kg/injection, schedule: Q01DX009 (ip), vehicle: saline 100 % of control | dose: 12.5 mg/kg/injection, schedule: Q01DX009 (ip), vehicle: saline 94 % of control and 96 % of control and 105 % of control | dose: 25.0 mg/kg/injection, schedule: Q04DX003 (ip), vehicle: saline 93 % of control | dose: 50.0 mg/kg/injection, schedule: Q01DX001 (ip), vehicle: saline 100 % of control | dose: 50.0 mg/kg/injection, schedule: Q04DX003 (ip), vehicle: saline 100 % of control and 113 % of control and 116 % of control | [2] 94 % of control and 102 % of control and 110 % of control | dose: 100.0 mg/kg/injection, schedule: Q04DX003 (ip), vehicle: other 88 % of control | [1] 100 % of control | dose: 200.0 mg/kg/injection, schedule: Q01DX009 (ip), vehicle: saline 87 % of control and 101 % of control and 102 % of control | dose: 200.0 mg/kg/injection, schedule: Q04DX003 (ip), vehicle: other 113 % of control | dose: 250.0 mg/kg/injection, schedule: Q04DX003 (ip), vehicle: saline 118 % of control | dose: 400.0 mg/kg/injection, schedule: Q01DX009 (ip), vehicle: saline 90 % of control and 96 % of control | dose: 400.0 mg/kg/injection, schedule: Q04DX003 (ip), vehicle: other 119 % of control and 123 % of control | dose: 500.0 mg/kg/injection, schedule: Q04DX003 (ip), vehicle: saline 88 % of control | dose: 600.0 mg/kg/injection, schedule: Q01DX001 (ip), vehicle: saline 90 % of control and 92 % of control | dose: 600.0 mg/kg/injection, schedule: Q04DX003 (ip), vehicle: saline 90 % of control (2×) and 113 % of control
